Test results taken from PubChem BioAssay (NCI).
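48-hour exposure; five concentrations; linearly interpolated endpoints. GI50: concentration for 50% inhibition of growth. TGI: concentration producing complete growth inhibition.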

What was measured:
Assay in all cases: NCI-60 cell line screen, 48 h
DU-145 prostate = tested on: DU-145 prostate
A549 NSCLC = tested on: A549 NSCLC
PC-3 prostate = tested on: PC-3 prostate
HS 578T breast = tested on: HS 578T breast
NCI-H226 lung = tested on: NCI-H226 lung
MOLT-4 leukemia = tested on: MOLT-4 leukemia
HCT-15 colon = tested on: HCT-15 colon
BT-549 breast = tested on: BT-549 breast
EKVX NSCLC = tested on: EKVX NSCLC
NCI-H522 lung = tested on: NCI-H522 lung
SR leukemia = tested on: SR leukemia
UACC-257 melanoma = tested on: UACC-257 melanoma
MDA-N = tested on: MDA-N

Row | SMILES | TGI (DU-145 prostate) [µM] | TGI (A549 NSCLC) [µM] | TGI (PC-3 prostate) [µM] | TGI (HS 578T breast) [µM] | TGI (NCI-H226 lung) [µM] | TGI (MOLT-4 leukemia) [µM] | TGI (HCT-15 colon) [µM] | TGI (BT-549 breast) [µM] | TGI (EKVX NSCLC) [µM] | TGI (NCI-H522 lung) [µM] | TGI (SR leukemia) [µM] | TGI (UACC-257 melanoma) [µM] | TGI (MDA-N) [µM] | GI50 (DU-145 prostate) [µM] | GI50 (SR leukemia) [µM] | GI50 (PC-3 prostate) [µM] | GI50 (MOLT-4 leukemia) [µM] | GI50 (BT-549 breast) [µM] | GI50 (EKVX NSCLC) [µM]
1 | O=[N+]([O-])c1sc2ccc(Cl)cc2c1Nc1ccc(Cl)cc1 | > 100 | > 100 | > 100 | > 100 | > 100 | > 100 | > 100 | > 100 | > 100 | > 100 |  |  |  |  |  |  |  |  | 
2 | CCN(CC)CCNc1ccc2nnn3c4ccccc4c(=O)c1c23 |  | 13.2 |  |  | 8.09 | 6.7 | 26.2 |  | 19.4 | 16.4 | 5.44 | 22.3 |  |  |  |  |  |  | 
3 | O=C(O)CCC(NC(=O)c1ccc(CNc2nc3ccccc3nc2C(=O)O)cc1)C(=O)O (stereo not drawn) | > 100 | > 100 | > 100 | > 100 | > 100 | > 100 | > 100 |  | > 100 |  | > 100 | > 100 | > 100 |  |  |  |  |  | 
4 | C[C@]12CC/C(=N\OCCN3CCCCC3)C=C1CCC1C2CC[C@@]2(C)C1CC[C@]2(C)O (stereo partly drawn) | 44.8 | 35 | 49.5 | 32.1 | 14.2 | 6.84 | 27.6 | 33.5 | 44.6 | 7.52 |  | 18.9 | 11.7 |  |  |  |  |  | 
5 | Cc1cc(C)n(CN(Cn2nc(C)cc2C)c2ccccc2)n1 | > 100 | > 100 | > 100 | > 100 |  | 28.3 | 50.2 | 69.2 | 72.8 | 52.8 | 14.9 | 61 | 27.6 |  |  |  |  |  | 
6 | CC(O[Si](c1ccccc1)(c1ccccc1)C(C)(C)C)[C@H](NC(=O)OC(C)(C)C)C(=O)O (stereo partly drawn) |  | > 100 | 56.8 | > 100 |  | 46.1 | 79.7 |  | > 100 |  | 90.2 | > 100 | 97.1 |  |  |  |  |  | 
7 | CCOC(=O)NC(=S)c1ccc(O)c2ccccc12 | > 100 | > 100 | > 100 | > 100 |  | > 100 | > 100 | 95.2 | > 100 | > 100 | > 100 | > 100 | > 100 |  |  |  |  |  | 
8 | CC(=O)N=C1N(/C=C2\C(=O)Oc3ccccc3C2=O)C(=O)/C(=C/c2ccccc2Cl)N1C | > 100 | > 100 | > 100 | 34.9 | > 100 | > 100 | > 100 |  | > 100 | > 100 | > 100 | > 100 | > 100 |  |  |  |  |  | 
9 | COc1ccc(-c2nc(-c3cnccn3)n(COCCO)n2)cc1 | > 100 | > 100 | > 100 |  |  | > 100 | > 100 | > 100 |  | > 100 | > 100 | > 100 | > 100 |  |  |  |  |  | 
10 | O=C1CN(c2ccc(Cl)cc2)C(=O)CN1NCNN1CC(=O)N(c2ccc(Cl)cc2)CC1=O | > 100 | > 100 | > 100 | > 100 |  | > 100 | > 100 | > 100 | > 100 | > 100 | > 100 | > 100 | > 100 |  |  |  |  |  | 
11 | CCOC(=O)c1[nH]c2nc(SC)nc(Nc3ccccc3Cl)c2c1N | 95.7 | 44.8 | 37.1 | 61.8 | 70.2 | 30.5 | > 100 | 82.1 |  | 53.4 |  | > 100 | > 100 |  |  |  |  |  | 
12 | CCCCCCCCCc1c(O)c(O)c(CCCCCCCCC)c(CCCCCCCCC)c1CCCCCCCCC | > 100 | > 100 | > 100 | > 100 | > 100 | > 100 | > 100 | > 100 | > 100 | > 100 |  | > 100 | > 100 |  |  |  |  |  | 
13 | COc1ccc(/C=C2/CCS(=O)(=O)c3ccc(C)cc3C2=O)cc1OC | 15.1 | > 100 | 58.9 | 73.2 | 70.8 | 49.6 | 20.3 | 35.6 | 40.3 |  | 58.1 | 25.4 | 49.5 |  |  |  |  |  | 
14 | Cc1ccc(C2CC(c3cccc(Nc4ccncc4)c3)=NN2c2ccccc2)cc1 (stereo not drawn) | 3.6 |  | 3.24 |  |  | 4.64 |  | 3.37 | 3.25 |  | 5.73 |  |  | 1.89 | 2.07 | 1.59 | 1.95 | 1.81 | 1.69
15 | COC(=O)c1cc(C)n(CN(Cc2ccccc2)Cn2nc(C(=O)OC)cc2C)n1 | > 100 | > 100 | > 100 | > 100 | > 100 | > 100 | > 58.2 | > 100 | > 100 | > 100 |  | > 100 | > 100 |  |  |  |  |  | 
16 | O=C(N/N=C(/COc1cccc(Cl)c1)N=Cc1cccnc1)c1ccncc1 | > 100 | > 100 | > 100 | > 100 | > 100 | > 100 | > 100 | > 100 | > 100 | > 100 |  | > 100 | > 100 |  |  |  |  |  | 
17 | CC(C)(C)NC(=O)C12C3C4C1C1C2C3C41C(=O)NC(C)(C)C (stereo not drawn) | > 100 | > 100 | > 100 | > 100 |  | > 100 | > 100 | > 100 | > 100 | > 100 | > 100 | > 100 | > 100 |  |  |  |  |  | 
18 | COC(=O)c1c2c(cc3c1CC1(Cc4cc5c(cc4C1)CCC5)C3)CCC2 | > 100 | > 100 | > 100 | > 100 |  | > 100 | > 100 |  | > 100 | > 100 | > 100 | > 100 | > 100 |  |  |  |  |  | 
19 | O=C1/C(=C/c2cccs2)NC(=S)N1CN1CCCC(CO)C1 (stereo not drawn) | > 100 | > 100 | > 100 | > 100 | > 100 | > 100 | > 100 |  | > 100 |  | > 100 | > 100 | > 100 |  |  |  |  |  | 
